In US20260174786A1, “A NITROGEN-CONTAINING SPIROCYCLIC COMPOUND, PHARMACEUTICAL COMPOSITION AND USE THEREOF” (Prime Gene Therapeutics Co., Ltd., priority 2022, published 2026):

Columns and labels:
hTRPV3 = molecular target: T1, hTRPV3 (Homo sapiens, UniProt Q8NET8); test: Whole cell patch clamp inhibition rate test on HEK-293 cells instantaneously expressing TRPV3; assay type: cell-based; settings: HEK293; hTRPV3, single concentration 0.3 μM
T1 construct: expressed in transfected cells; host or cells: HEK-293
T1 sequence (Q8NET8 1-790): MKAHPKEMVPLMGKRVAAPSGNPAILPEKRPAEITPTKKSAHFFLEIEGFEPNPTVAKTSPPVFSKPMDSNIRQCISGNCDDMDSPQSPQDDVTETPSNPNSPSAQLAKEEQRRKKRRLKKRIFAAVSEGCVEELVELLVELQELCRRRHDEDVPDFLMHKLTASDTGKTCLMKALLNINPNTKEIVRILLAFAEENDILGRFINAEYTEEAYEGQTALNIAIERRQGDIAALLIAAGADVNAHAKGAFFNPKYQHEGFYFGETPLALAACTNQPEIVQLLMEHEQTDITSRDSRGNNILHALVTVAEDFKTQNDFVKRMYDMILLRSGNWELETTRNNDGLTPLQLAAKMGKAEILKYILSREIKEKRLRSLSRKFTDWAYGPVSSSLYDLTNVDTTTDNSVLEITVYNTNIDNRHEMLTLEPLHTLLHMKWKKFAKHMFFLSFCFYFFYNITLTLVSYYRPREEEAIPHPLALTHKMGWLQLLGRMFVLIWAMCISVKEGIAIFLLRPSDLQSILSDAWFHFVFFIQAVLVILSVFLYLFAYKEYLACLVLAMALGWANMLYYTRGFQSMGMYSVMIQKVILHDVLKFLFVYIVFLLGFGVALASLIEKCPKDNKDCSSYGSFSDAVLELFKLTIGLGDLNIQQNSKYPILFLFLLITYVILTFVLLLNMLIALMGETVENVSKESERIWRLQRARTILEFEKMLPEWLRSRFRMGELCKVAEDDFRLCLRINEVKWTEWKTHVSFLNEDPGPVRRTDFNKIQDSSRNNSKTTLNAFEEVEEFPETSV
How it was run: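 HEK-293 cells transiently transfected with TRPV3, recorded next-but-one day by whole-cell patch clamp at room temperature: holding −80 mV, ramp −100 to 100 mV over 100 ms every 5 s, peak current monitored. Ascending concentrations perfused, 5 min each; each cell its own control, at least two cells per concentration.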

[1] = Stability assessment of compounds at room temperature under 92.5% humidity (LC-MS); assay type: physicochemical; settings: 92.5% humidity (open), after 5 days
Description: Taking the compound of Example 21 and KM-001-E1 in WO2021154966A1 as examples, the stability thereof was compared:
Compound of Example 21 and KM-001-E1 were accurately weighed and placed in penicillin bottles, and placed at room temperature under 92.5% humidity (open) conditions for 5-10 days to investigate the stability of the compounds.
• instrument: Thermo U3000-ISQEC • column: Xtimate UHPLC C18 1.8 μm 4.6*50 mm • Column temperature: 35° C. • wavelength: 210 nm, 254 nm • mobile phase A: 0.05% formic acid aqueous solution; mobile phase B: 0.05% formic acid acetonitrile; gradient: 30% B 0-1.2 min, 95% B 1.2-3.3 min, 30% B 3.3-4.5 min;
Analyzing the degradation impurities of each compound under 92.5% humidity conditions using LC-MS: The main impurities in Example 21 had m/z 427.17, with a retention time of 2.55 minutes. After being left for 10 days, the peak area proportion was only 0.3%; The main impurities in KM-001-E1 has m/z=431.14 and m/z=415.16, with retention times of 2.31 minutes and 2.64 minutes, respectively. […] Based on LC-MS and NMR data analysis, it can be inferred that the main impurities produced in Example 21 are ketones, while the main impurities produced in KM-001-E1 are aldehydes and carboxylic acids.

Structure (SMILES)	inhibition at 0.3 µM (hTRPV3)	peak area proportion of main impurity (m/z=415.16) [1]	peak area proportion of main impurity (m/z=431.14) [1]
O=C(c1ccc(F)cn1)N1CCC2(CC(O)c3cc(-c4ccc(F)cc4C4CC4)ccc32)C1 (stereo not shown) [Example 163, (5-(2-cyclopropyl-4-fluorophenyl)-3-hydroxy-2,3-dihydrospiro[indene-1,3′-pyrrolidine]-1′-yl)(5-fluoropyridin-2-yl) ketone]	70 to 100%		
CC(C)(C#N)c1ccccc1-c1ccc2c(c1)C(O)CC21CCN(C(=O)c2ccc(F)cn2)C1 (stereo not shown) [Example 164, 2-(2-(1′-(5-fluoropyridoyl)-3-hydroxy-2,3-dihydrospiro[indene-1,3′-pyrrolidine]-5-yl)phenyl)-2-methyl propionitrile]	50 to 70%		
O=C(c1ccc(F)cn1)N1CC[C@H](c2ccc(-c3ccccc3C3CC3)cc2CO)C1 [KM-001-E1]		2.43%	2.48%
